Laboratory results as given in patent publication US12691070B2, “Cationic lipids and preparation method thereof” (RiboX Therapeutics HK Limited, priority 2023, dated 2026).

Experiments:
[1] = LNP size and polydispersity index (PDI) by dynamic light scattering; type: physicochemical; conditions: LNP with cirRNA (SEQ ID NO: 1); for Size: in nm (unit assumed)
Procedure: (§1) Ionizable lipid, DSPC, Cholesterol and DMG-PEG 2000 were mixed at a molar ratio of 50:10:38.5:1.5 in absolute ethanol. Circular RNA and linear mRNA payloads were suspended in 25 mM Acetate Buffer (pH 4.5). To form LNPs, three volumes of luciferase encoding RNA, in the form of cirRNA (SEQ ID NO:1) and mRNA (SEQ ID NO:2) respectively, were mixed with one volume of lipids in ethanol solution by microfluidic mixing with the Nanoassemblr Ignite (Precision Nanosystems) at a flow rate of 12 ml/min. The molar ratio of ionizable lipid to ribonucleotide was 15 or 6. The final lipid concentration in solution ranged from 1.5 mM to 6 mM. After encapsulation, the particles were dialyzed twice against PBS.
(§2) The LNP size and polydispersity index (PDI), determined by dynamic light scattering (DLS), and zeta potential were measured by a Zetasizer machine (Malvern). RNA concentration and encapsulation efficacy were analyzed by the Quant-IT Ribogreen kit by calculating the percentage encapsulation at 100%−(RNA-LNPs/RNA-LNPs with Triton X-100).

[2] = LNP zeta potential (Zetasizer); type: physicochemical; conditions: LNP with cirRNA (SEQ ID NO: 1)
Procedure: as §1, §2

[3] = RNA encapsulation efficacy by Quant-IT Ribogreen kit; type: physicochemical; conditions: LNP with cirRNA (SEQ ID NO: 1)
Procedure: as §1, §2

Hep G2 cells [4] = experiment: In vitro expression of firefly-luciferase, Hep G2; type: cell-based; conditions: cirRNA (SEQ ID NO: 1) LNPs; firefly-luciferase luminescence; Hep G2 cells
Procedure: (§3) RAW 264.7 and Hep G2 cells were transfected with 100 ng/mL of RNA-LNPs encoding for firefly-luciferase. At 72 hours post transfection, the cells were washed and lysed. The luciferase expression was determined in the cell lysates with the luciferase assay reagent kit (Promega), according to the kit protocol, luciferase activity was measured by a luminometer.

RAW 264.7 cells [5] = experiment: In vitro expression of firefly-luciferase, RAW 264.7; type: cell-based; conditions: cirRNA (SEQ ID NO: 1) LNPs; firefly-luciferase luminescence; RAW 264.7 cells
Procedure: as §3

Hep G2 cells [6] = experiment: In vitro toxicity (CellTiter-Glo cell viability), Hep G2; type: cell-based; conditions: cirRNA (SEQ ID NO: 1) LNPs; Hep G2 cells;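 further: percent of untreated cells luminescence signal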
Procedure: (§4) RAW 264.7 and Hep G2 cells were transfected with 1 μg/mL RNA-LNPs. At 72 hours post transfection, cell viability was determined with the CellTiter-Glo® reagent kit, according to the kit protocol, measured by a luminometer.
(§5) The cell viability was calculated according to the following formula: […]

RAW 264.7 cells [7] = experiment: In vitro toxicity (CellTiter-Glo cell viability), RAW 264.7; type: cell-based; conditions: cirRNA (SEQ ID NO: 1) LNPs; RAW 264.7 cells;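 further: percent of untreated cells luminescence signal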
Procedure: as §4, §5

BALB/C mice = experiment: In vivo expression, whole-body luminescence (IVIS); conditions: cirRNA (SEQ ID NO: 1) LNPs, BALB/C mice
Procedure: 6-8 week old, female BALB/C mice were injected with 0.05 mg*kg-1 of RNA-LNPs encoding for firefly-luciferase by intravenous injection. At 6 hours post injection, animals were intraperitoneally injected with 15 mg/ml of Luciferin substrate and whole-body luminescence was determined by a bioluminescent in vivo imaging system (IVIS).

| PDI [1] | Size [1] | Zeta (mV) [2] | Encapsulation Efficiency % [3] | SMILES | In vitro Expression HepG2 (Hep G2 cells [4]) | In vitro Expression RAW (RAW 264.7 cells [5]) | In vitro Viability HepG2 (Hep G2 cells [6]) | In vitro Viability RAW (RAW 264.7 cells [7]) | In vivo Expression (Whole Body) (BALB/C mice) |
| --- | --- | --- | --- | --- | --- | --- | --- | --- | --- |
| 0.115 | 116.3 | −6.298 mV | 71% | CCCCC/C=C\C/C=C\CCCCCCCCN(CCCCCCCC/C=C\C/C=C\CCCCC)CCOC(=O)NCc1ccncc1 [Lipid 35, 2-(di((9Z,12Z)-octadeca-9,12-dien-1-yl)amino)ethyl (pyridin-4-ylmethyl)carbamate] | 2.82E+02 | 6.25E+03 | 103% | 108% | 1.16E+05 |
| 0.138 | 125.4 | −3.556 mV | 96% | CCCCC/C=C\C/C=C\CCCCCCCCN(CCCCCCCC/C=C\C/C=C\CCCCC)CCOC(=O)NCCN1CCOCC1 [Lipid 36, 2-(di((9Z,12Z)-octadeca-9,12-dien-1-yl)amino)ethyl (2-morpholinoethyl)carbamate] | 9.18E+04 | 2.03E+04 | 82% | 95% | 1.21E+05 |
| 0.138 | 145.8 | 4.079 mV | 95% | CCCCC/C=C\C/C=C\CCCCCCCCN(CCCCCCCC/C=C\C/C=C\CCCCC)CCOC(=O)NCCN1CCN(C)CC1 [Lipid 37, 2-(di((9Z,12Z)-octadeca-9,12-dien-1-yl)amino)ethyl (2-(4-methylpiperazin-1-yl)ethyl)carbamate] | 5.96E+05 | 1.98E+04 | 87% | 92% | 1.16E+05 |
| 0.07 | 169.5 | −3.335 mV | 91% | CCCCC/C=C\C/C=C\CCCCCCCCN(CCCCCCCC/C=C\C/C=C\CCCCC)CCOC(=O)NCc1ncc[nH]1 [Lipid 39, 2-(di((9Z,12Z)-octadeca-9,12-dien-1-yl)amino)ethyl ((1H-imidazol-2-yl)methyl)carbamate] | 8.11E+02 | 2.58E+03 | 90% | 96% | 1.15E+04 |
| 0.163 | 186 | 5.74 mV | 91% | CCCCC/C=C\C/C=C\CCCCCCCCN(CCCCCCCC/C=C\C/C=C\CCCCC)CCOC(=O)NCCN(C)C [Lipid 41, 2-(di((9Z,12Z)-octadeca-9,12-dien-1-yl)amino)ethyl (2-(dimethylamino)ethyl)carbamate] | 2.77E+01 | 1.12E+05 | 89% | 70% | 4.69E+04 |
| 0.088 | 137.6 | 3.255 mV | 100% | CCCCCCCCC(CCCCCC)C(=O)OCCCCCCCCN(CCCCCCCCCCC(=O)OCCCCCC)CCOC(=O)NCCN1CCN(C)CC1 (stereo not shown) [Lipid 46, hexyl 11-((8-((2-hexyldecanoyl)oxy)octyl)(2-(((2-(4-methylpiperazin-1-yl)ethyl)carbamoyl)oxy)ethyl)amino)undecanoate] | 3.70E+01 | 3.51E+02 | 102% | 99% | 1.92E+06 |
|  |  |  |  | CCCCC/C=C\C/C=C\CCCCCCCCN(CCCCCC(=O)OCC(CCCCCCCC)CCCCCCCCCC)CCOC(=O)NCCCN(C)C (stereo not shown) [Lipid 81, 2-octyldodecyl 2-methyl-11-((9Z,12Z)-octadeca-9,12-dien-1-yl)-7-oxo-8-oxa-2,6,11-triazaheptadecan-17-oate] | 6.71E+04 | 1.56E+03 | 121% | 107% | 1.15E+04 |
|  |  |  |  | CCCCC/C=C\C/C=C\CCCCCCCCN(CCCCCC(=O)OCC/C=C\CCCCC)CCOC(=O)NCc1ccncc1 [Lipid 99, (Z)-non-3-en-1-yl 6-(((9Z,12Z)-octadeca-9,12-dien-1-yl)(2-(((pyridin-4-ylmethyl)carbamoyl)oxy)ethyl)amino)hexanoate] | 1.13E+04 | 1.01E+04 | 78% | 137% | 5.53E+07 |
|  |  |  |  | CCCCCCCOC(=O)CCCCCCCCCN(CCCCCCCCCC(=O)OCCCCCCC)CCOC(=O)NCCN1CCCCC1 [Lipid 118, diheptyl 10,10′-((2-(((2-(piperidin-1-yl)ethyl)carbamoyl)oxy)ethyl)azanediyl)bis(decanoate)] | 1.43E+03 | 1.42E+04 | 19% | 8% | 7.90E+06 |
|  |  |  |  | CCCCCCOC(=O)CCCCCCCCCCN(CCCCCCCCCCC(=O)OCCCCCC)CCOC(=O)NCCN1CCOCC1 [Lipid 139, dihexyl 11,11′-((2-(((2-morpholinoethyl)carbamoyl)oxy)ethyl)azanediyl)diundecanoate] | 4.85E+01 | 1.64E+02 | 16% | 8% | 3.48E+06 |
|  |  |  |  | CCCCCCCCCCCOC(=O)CCCCCN(CCCCCC(=O)OCCCCCCCCCCC)CCOC(=O)NCCN1CCN(C)CC1 [Lipid 156, diundecyl 6,6′-((2-(((2-(4-methylpiperazin-1-yl)ethyl)carbamoyl)oxy)ethyl)azanediyl)dihexanoate] | 2.86E+04 | 1.67E+03 | 84% | 93% | 4.92E+04 |
|  |  |  |  | CCCCCCCCCCCOC(=O)CCCCCN(CCCCCCCC(=O)OC(CCCCCCCC)CCCCCCCC)CCOC(=O)NCCN1CCN(C)CC1 [Lipid 160, heptadecan-9-yl 8-((2-(((2-(4-methylpiperazin-1-yl)ethyl)carbamoyl)oxy)ethyl)(6-oxo-6-(undecyloxy)hexyl)amino)octanoate] | 6.38E+05 | 1.94E+04 | 94% | 93% | 4.44E+05 |
|  |  |  |  | CCCCCCCCCC(=O)OCCCCCCCN(CCCCCCCOC(=O)CCCCCCCCC)CCOC(=O)NCc1ncc[nH]1 [Lipid 176] | 6.28E+03 | 4.83E+04 | 88% | 93% | 1.31E+07 |
|  |  |  |  | CCCCC/C=C\CCOC(=O)CCCCCN(CCCCCCCCOC(=O)C(CCCCCC)CCCCCCCC)CCOC(=O)NCCN(C)C (stereo not shown) [Lipid 184] | 9.87E+04 | 1.93E+03 | 91% | 88% | 5.28E+07 |

| SMILES | PDI [1] | Size [1] | Zeta (mV) [2] | Encapsulation Efficiency % [3] | In vitro Expression HepG2 (Hep G2 cells [4]) | In vitro Expression RAW (RAW 264.7 cells [5]) | In vitro Viability HepG2 (Hep G2 cells [6]) | In vitro Viability RAW (RAW 264.7 cells [7]) | In vivo Expression (Whole Body) (BALB/C mice) |
| --- | --- | --- | --- | --- | --- | --- | --- | --- | --- |
| CCCCCCCCC(CCCCCC)C(=O)OCCCCCCCCN(CCCCCCCCOC(=O)C(CCCCCC)CCCCCCCC)CCOC(=O)NCc1ccc(NC(=O)OC(C)(C)C)cc1 (stereo not shown) [Lipid 8, ((2-(((4-((tert-butoxycarbonyl)amino)benzyl)carbamoyl)oxy)ethyl)azanediyl)bis(octane-8,1-diyl) bis(2-hexyldecanoate)] | 0.162 | 80.1 | −20.4 mV | 84% | 2.33E+01 | 6.90E+01 | 110% | 105% | 9.52E+04 |
